Experimental data published in patent US11162944B2, “Compositions and methods” (priority 2015, dated 2021).
Read-outs that look alike come from different tables or passages of the source. Marks after values point to notes of the source that are not given here.

Tests used:
[1] = system: biomarker (antibody) in serum samples from patients with symptoms of tuberculosis; assay type: binding, human
[2] = system: wild-type BMDCs; assay: IL-6 secretion by bone marrow-derived dendritic cells, cytokine-specific ELISA; assay type: cell-based, mice; conditions: antigens at 100 μg/ml coated on plate, ISO as solvent, FIG. 1
Experimental: The concentrations of cytokines in the cell-free medium from stimulation of bone marrow-derived dendritic cells were determined using standard cytokine-specific ELISA. BMDCs were generated from mice, by flushing out the femurs of mice into complete medium and pipetting vigorously to make a single-cell suspension. The glycolipids were coated to the bottom of 96 micro-well plates (100 μg/ml). BMDCs were added, and after 6 or 48 hours of incubation the supernatants were harvested.
The first experiment was the IL-6 secretion by wild-type BMDCs from mice using compounds B, D, C and H (shown below) as antigens at 100 μg/ml, and isopropyl alcohol (ISO) as a solvent. Commercial trehalose-6,6-dimycolate (TDM), lipopolysaccharides (LPS), and trehalose-6,6-dibehenate (TDB) were used as a controls.

Structure (SMILES): CCCCCCCCCCCCCCCCCCCCCCCC[C@@H](C(=O)OC[C@H]1O[C@H](OC)[C@@H](O)[C@@H]1O)[C@H](O)CCCCCCCCCCCCCCCCC[C@@H]1C[C@@H]1CCCCCCCCCCCCCCCC[C@@H](OC)[C@@H](C)CCCCCCCCCCCCCCCCCC [Antigen B]
- ELISA absorbance at 492 nm ([1]; serum sample 1 TB+): 0.48*
- ELISA absorbance at 492 nm ([1]; serum sample 2 TB+): 0.54*
- ELISA absorbance at 492 nm ([1]; serum sample 3 TB+): 1.10*
- ELISA absorbance at 492 nm ([1]; serum sample 4 TB+): 1.00*
- ELISA absorbance at 492 nm ([1]; serum sample 5 TB+): 0.45*
- ELISA absorbance at 492 nm ([1]; serum sample 6 TB+): 0.97*
- ELISA absorbance at 492 nm ([1]; serum sample 7 TB+): 0.87*
- ELISA absorbance at 492 nm ([1]; serum sample 8 TB+): 0.97*
- ELISA absorbance at 492 nm ([1]; serum sample 9 TB+): 0.62*
- ELISA absorbance at 492 nm ([1]; serum sample 10 TB−): 0.56*
- ELISA absorbance at 492 nm ([1]; serum sample 11 TB−): 0.64*
- ELISA absorbance at 492 nm ([1]; serum sample 12 TB−): 0.44
- ELISA absorbance at 492 nm ([1]; serum sample 13 TB−): 0.56*
- ELISA absorbance at 492 nm ([1]; serum sample 14 TB−): 0.91*
- ELISA absorbance at 492 nm ([1]; serum sample 15 TB−): 0.53*
- ELISA absorbance at 492 nm ([1]; serum sample 16 TB−): 0.52*
- ELISA absorbance at 492 nm ([1]; serum sample 17 TB−): 0.87*
- ELISA absorbance at 492 nm ([1]; serum sample 18 TB−): 0.44
- ELISA absorbance at 492 nm ([1]; serum sample 19 TB−): 0.53*
- ELISA absorbance at 492 nm ([1]; serum sample 20 TB−): 0.63*
- ELISA absorbance at 492 nm ([1]; serum sample 21 TB−): 0.42
- ELISA absorbance at 492 nm ([1]; serum sample 22 TB−): 0.33
- ELISA absorbance at 492 nm ([1]; serum sample 23 TB−): 0.48*
- ELISA absorbance at 492 nm ([1]; serum sample 24 TB−): 0.81*
- ELISA absorbance at 492 nm ([1]; serum sample 25 TB−): 0.23
- ELISA absorbance at 492 nm ([1]; serum sample 26 TB−): 0.64*
- ELISA absorbance at 492 nm ([1]; serum sample 27 TB−): 0.60*
- ELISA absorbance at 492 nm ([1]; serum sample 28 TB−): 0.42
- ELISA absorbance at 492 nm ([1]; serum sample 29 TB−): 0.39
- ELISA absorbance at 492 nm ([1]; serum sample 30 TB−): 0.41
- ELISA absorbance at 492 nm ([1]; serum sample 31 TB−): 0.37
- ELISA absorbance at 492 nm ([1]; serum sample 32 TB−): 0.68*
- ELISA absorbance at 492 nm ([1]; serum sample 33 TB−): 0.36
- ELISA absorbance at 492 nm ([1]; serum sample 34 TB−): 0.47*
- ELISA absorbance at 492 nm ([1]; serum sample 35 TB−): 0.38
- ELISA absorbance at 492 nm ([1]; serum sample 36 TB−): 0.28
- ELISA absorbance at 492 nm ([1]; serum sample 37 TB−): 0.40
- ELISA absorbance at 492 nm ([1]; serum sample 38 TB−): 0.44
- ELISA absorbance at 492 nm ([1]; serum sample 39 TB−): 0.31
- ELISA absorbance at 492 nm ([1]; serum sample 40 TB−): 0.28
- ELISA absorbance at 492 nm ([1]; serum sample 41 TB−): 0.51*
- ELISA absorbance at 492 nm ([1]; serum sample 42 TB−): 0.49*
- ELISA absorbance at 492 nm ([1]; serum sample 43 TB−): 0.28
- ELISA absorbance at 492 nm ([1]; serum sample 44 TB−): 0.60*
- ELISA absorbance at 492 nm ([1]; serum sample 45 TB−): 0.34
- ELISA absorbance at 492 nm ([1]; serum sample 46 TB−): 0.27
- ELISA absorbance at 492 nm ([1]; serum sample 47 TB−): 0.35
- ELISA absorbance at 492 nm ([1]; serum sample 48 TB−): 0.29
- ELISA absorbance at 492 nm ([1]; serum sample 49 TB−): 0.47*
- ELISA absorbance at 492 nm ([1]; serum sample 50 TB−): 0.31
- ELISA absorbance at 492 nm ([1]; serum sample 51 TB−): 0.22
- ELISA absorbance at 492 nm ([1]; serum sample 52 TB−): 0.28
- ELISA absorbance at 492 nm ([1]; serum sample 53 TB−): 0.24
- ELISA absorbance at 492 nm ([1]; serum sample 54 TB−): 0.25
- ELISA absorbance at 492 nm ([1]; serum sample 55 TB−): 0.27
- ELISA absorbance at 492 nm ([1]; serum sample 56 TB−): 0.42
- ELISA absorbance at 492 nm ([1]; serum sample 57 TB−): 0.40
- ELISA absorbance at 492 nm ([1]; serum sample 58 TB−): 0.32
- ELISA absorbance at 492 nm ([1]; serum sample 59 TB−): 0.30
- ELISA absorbance at 492 nm ([1]; serum sample 60 TB−): 0.36
- ELISA absorbance at 492 nm ([1]; serum sample 61 TB−): 0.36
- ELISA absorbance at 492 nm ([1]; serum sample 62 TB−): 0.26
- ELISA absorbance at 492 nm ([1]; serum sample 63 TB−): 0.21
- ELISA absorbance at 492 nm ([1]; serum sample 64 TB−): 2.33*
- IL-6 secretion by wild-type BMDCs [2]: good level of stimulation

Structure (SMILES): CCCCCCCCCCCCCCCCCCCCCC[C@@H](C(=O)OC[C@H]1O[C@H](OC)[C@@H](O)[C@@H]1O)[C@H](O)CCCCCCCCCCCCCCC[C@@H]1C[C@@H]1CCCCCCCCCCCCCCCCCCC(=O)C(C)CCCCCCCCCCCCCCCCCC (stereo partly shown) [Antigen C]
- ELISA absorbance at 492 nm ([1]; serum sample 1 TB+): 0.33*
- ELISA absorbance at 492 nm ([1]; serum sample 2 TB+): 0.26*
- ELISA absorbance at 492 nm ([1]; serum sample 3 TB+): 0.44*
- ELISA absorbance at 492 nm ([1]; serum sample 4 TB+): 0.48*
- ELISA absorbance at 492 nm ([1]; serum sample 5 TB+): 0.40*
- ELISA absorbance at 492 nm ([1]; serum sample 6 TB+): 0.39*
- ELISA absorbance at 492 nm ([1]; serum sample 7 TB+): 1.37*
- ELISA absorbance at 492 nm ([1]; serum sample 8 TB+): 0.46*
- ELISA absorbance at 492 nm ([1]; serum sample 9 TB+): 0.35*
- ELISA absorbance at 492 nm ([1]; serum sample 10 TB−): 0.22
- ELISA absorbance at 492 nm ([1]; serum sample 11 TB−): 0.20
- ELISA absorbance at 492 nm ([1]; serum sample 12 TB−): 0.18
- ELISA absorbance at 492 nm ([1]; serum sample 13 TB−): 0.24
- ELISA absorbance at 492 nm ([1]; serum sample 14 TB−): 0.56*
- ELISA absorbance at 492 nm ([1]; serum sample 15 TB−): 0.22
- ELISA absorbance at 492 nm ([1]; serum sample 16 TB−): 0.30*
- ELISA absorbance at 492 nm ([1]; serum sample 17 TB−): 0.57*
- ELISA absorbance at 492 nm ([1]; serum sample 18 TB−): 0.32*
- ELISA absorbance at 492 nm ([1]; serum sample 19 TB−): 0.20
- ELISA absorbance at 492 nm ([1]; serum sample 20 TB−): 0.41*
- ELISA absorbance at 492 nm ([1]; serum sample 21 TB−): 0.41*
- ELISA absorbance at 492 nm ([1]; serum sample 22 TB−): 0.31*
- ELISA absorbance at 492 nm ([1]; serum sample 23 TB−): 0.27*
- ELISA absorbance at 492 nm ([1]; serum sample 24 TB−): 0.53*
- ELISA absorbance at 492 nm ([1]; serum sample 25 TB−): 0.24
- ELISA absorbance at 492 nm ([1]; serum sample 26 TB−): 0.90*
- ELISA absorbance at 492 nm ([1]; serum sample 27 TB−): 0.46*
- ELISA absorbance at 492 nm ([1]; serum sample 28 TB−): 0.42*
- ELISA absorbance at 492 nm ([1]; serum sample 29 TB−): 0.38*
- ELISA absorbance at 492 nm ([1]; serum sample 30 TB−): 0.39*
- ELISA absorbance at 492 nm ([1]; serum sample 31 TB−): 0.51*
- ELISA absorbance at 492 nm ([1]; serum sample 32 TB−): 1.01*
- ELISA absorbance at 492 nm ([1]; serum sample 33 TB−): 0.33*
- ELISA absorbance at 492 nm ([1]; serum sample 34 TB−): 0.52*
- ELISA absorbance at 492 nm ([1]; serum sample 35 TB−): 0.55*
- ELISA absorbance at 492 nm ([1]; serum sample 36 TB−): 0.25
- ELISA absorbance at 492 nm ([1]; serum sample 37 TB−): 0.43*
- ELISA absorbance at 492 nm ([1]; serum sample 38 TB−): 0.43*
- ELISA absorbance at 492 nm ([1]; serum sample 39 TB−): 0.34*
- ELISA absorbance at 492 nm ([1]; serum sample 40 TB−): 0.26*
- ELISA absorbance at 492 nm ([1]; serum sample 41 TB−): 0.44*
- ELISA absorbance at 492 nm ([1]; serum sample 42 TB−): 0.42*
- ELISA absorbance at 492 nm ([1]; serum sample 43 TB−): 0.32*
- ELISA absorbance at 492 nm ([1]; serum sample 44 TB−): 1.32*
- ELISA absorbance at 492 nm ([1]; serum sample 45 TB−): 0.49*
- ELISA absorbance at 492 nm ([1]; serum sample 46 TB−): 0.28*
- ELISA absorbance at 492 nm ([1]; serum sample 47 TB−): 0.56*
- ELISA absorbance at 492 nm ([1]; serum sample 48 TB−): 0.55*
- ELISA absorbance at 492 nm ([1]; serum sample 49 TB−): 0.79*
- ELISA absorbance at 492 nm ([1]; serum sample 50 TB−): 0.38*
- ELISA absorbance at 492 nm ([1]; serum sample 51 TB−): 0.18
- ELISA absorbance at 492 nm ([1]; serum sample 52 TB−): 0.32*
- ELISA absorbance at 492 nm ([1]; serum sample 53 TB−): 0.21
- ELISA absorbance at 492 nm ([1]; serum sample 54 TB−): 0.26*
- ELISA absorbance at 492 nm ([1]; serum sample 55 TB−): 0.31*
- ELISA absorbance at 492 nm ([1]; serum sample 56 TB−): 0.90*
- ELISA absorbance at 492 nm ([1]; serum sample 57 TB−): 0.55*
- ELISA absorbance at 492 nm ([1]; serum sample 58 TB−): 0.44*
- ELISA absorbance at 492 nm ([1]; serum sample 59 TB−): 0.65*
- ELISA absorbance at 492 nm ([1]; serum sample 60 TB−): 0.62*
- ELISA absorbance at 492 nm ([1]; serum sample 61 TB−): 0.76*
- ELISA absorbance at 492 nm ([1]; serum sample 62 TB−): 0.19
- ELISA absorbance at 492 nm ([1]; serum sample 63 TB−): 0.26*
- ELISA absorbance at 492 nm ([1]; serum sample 64 TB−): 0.37*
- IL-6 secretion by wild-type BMDCs [2]: no significant stimulation
